Laboratory results from article PMC5374710, “Discovery of the first dual GSK3β inhibitor/Nrf2 inducer. A new multitarget therapeutic strategy for Alzheimer’s disease” (Scientific Reports, 2017).

Tested on: HO-1
Experiment: HO-1 expression in glial cultures (western blot)
Format: cell-based, rat
Conditions: 30 μM, 24 h
Experimental: TNFα is considered one of the most important pro-inflammatory cytokines. […] The production of TNFα induced by LPS was reduced by 33% at 10 μM and by 50% at 30 μM. […] To further confirm the anti-inflammatory potential of compound 5c we measured the expression of thre NOX2 enzyme, since this isoform has been widely described as being specific tomicroglial cells. As depicted in Fig. 6F, LPS (1 μg/mL) stimulation of primary glial cultures during 24 h increased the expression of NOX2 by 65.3% (p < 0.01) compared to basal conditions.
Figure 6 Nitrites (A), TNFα (B), iNOS (C) and NOX activity (E) blockade (D) and NOX2 production (F) by 5c in primary glial cultures stimulated with LPS (1 μg/mL), HO-1 expression induced by this compound after 24 h. […] NOX activity was measured after 4 h co-treatment with LPS and compound 5c. […]
After treatment, mixed glial cells were washed with cold PBS and lysed in 100 μl ice-cold lysis buffer (1% Nonident P-40, 10% glycerol, 137 mM NaCl, 20 mM Tris HCl pH 7.5, 1 μg/ml leupeptin, 1 mM phenylmethylsulfonyl fluoride, 20 mM NaF, 1 mM sodium pyrophosphate, and 1 mM Na3VO4). […] Peroxidase-conjugated secondary antibodies (1:10000) were used to detect proteins by enhanced chemiluminescence detected by Advance Western-blotting Detection Kit (GE Healthcare, Barcelona, Spain). […]

With `COc1cccc(C2C(C#N)=C(N)Oc3n[nH]c(C)c32)c1` (stereo not shown) [Compound 5c, 6-Amino-4-(3-methoxyphenyl)-3-methyl-2,4-dihydropyrano[2,3-c]pyrazole-5-carbonitrile] the “HO-1 expression increase in glial cultures” value was 2.3 times.
